Drawing on patent US5326902A, “Oxyalkyne compounds, pharmaceutical compositions containing them and processes for preparing such compounds and compositions” (Gruenenthal GmbH, priority 1992, dated 1994), this text covers IC50 for 1 compound.

In one experiment the target is T1, 5-lipoxygenase (Rattus norvegicus, UniProt P12527).
T1 construct: endogenous in cells; host or cells: RBL-1 cells (rat basophilic leukemia)
T1 sequence (P12527 1-673): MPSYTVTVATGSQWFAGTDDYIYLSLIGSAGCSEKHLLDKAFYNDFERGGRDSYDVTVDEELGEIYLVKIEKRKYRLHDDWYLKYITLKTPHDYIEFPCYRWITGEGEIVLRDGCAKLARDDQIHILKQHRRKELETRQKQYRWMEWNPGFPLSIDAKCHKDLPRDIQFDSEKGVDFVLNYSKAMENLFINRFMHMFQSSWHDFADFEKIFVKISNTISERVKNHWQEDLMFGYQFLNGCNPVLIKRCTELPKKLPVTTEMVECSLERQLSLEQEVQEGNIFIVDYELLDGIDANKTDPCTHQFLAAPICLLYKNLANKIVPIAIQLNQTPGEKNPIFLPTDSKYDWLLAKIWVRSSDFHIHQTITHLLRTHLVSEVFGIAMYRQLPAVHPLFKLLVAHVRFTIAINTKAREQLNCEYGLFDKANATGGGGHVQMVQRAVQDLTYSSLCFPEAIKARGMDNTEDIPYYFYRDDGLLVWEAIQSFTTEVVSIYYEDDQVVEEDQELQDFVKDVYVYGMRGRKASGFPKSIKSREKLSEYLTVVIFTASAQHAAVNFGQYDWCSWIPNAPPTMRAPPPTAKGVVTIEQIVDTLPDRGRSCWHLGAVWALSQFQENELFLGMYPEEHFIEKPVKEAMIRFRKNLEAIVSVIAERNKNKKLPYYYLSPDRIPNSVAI
Description: Inhibition of Cell-free 5-lipoxygenase from RBL-1-cells (polarographic, 10,000 × g supernatant). Conditions: 10,000 × g supernatant of homogenized RBL-1-cells; arachidonic acid 75 μM; 35° C.; calculated IC50. The class given is biochemical. The method, then: Cell-free 5-lipoxygenase was polarographically measured from 10,000 × g supernatant of homogenized rat basophilic leucemia cells (M. Haurand & L. Flohe in Biol. Chem. Hoppe-Seyler 369, 133 to 142 (1988)). After preincubation of the 10,000 × g supernatant with arachidonic acid (75 μM), ATP (adenosine triphosphate; 4 mM), reduced glutathione (4 mM), and either a compound according to the invention (0.1 to 100 μM) or a solvent (ethanol and/or dimethyl sulfoxide) at 35° C. for 5 minutes, the lipoxygenase reaction was initiated by addition of calcium chloride (3 mM) and simultaneously recorded.
The activity of 5-lipoxygenase was determined from the difference in the pO2 -decrease before and after addition of calcium chloride. The evaluation included the initial rate of the reaction after the lag-phase as well as the duration of the lag-phase. In the concentration range of from 3 to 50 μM, the test substances induced lag-phases between 20 and 60 seconds.

Experiment [1] concerns the target T2, 12-lipoxygenase (Homo sapiens, UniProt P18054).
T2 sequence (P18054 1-663): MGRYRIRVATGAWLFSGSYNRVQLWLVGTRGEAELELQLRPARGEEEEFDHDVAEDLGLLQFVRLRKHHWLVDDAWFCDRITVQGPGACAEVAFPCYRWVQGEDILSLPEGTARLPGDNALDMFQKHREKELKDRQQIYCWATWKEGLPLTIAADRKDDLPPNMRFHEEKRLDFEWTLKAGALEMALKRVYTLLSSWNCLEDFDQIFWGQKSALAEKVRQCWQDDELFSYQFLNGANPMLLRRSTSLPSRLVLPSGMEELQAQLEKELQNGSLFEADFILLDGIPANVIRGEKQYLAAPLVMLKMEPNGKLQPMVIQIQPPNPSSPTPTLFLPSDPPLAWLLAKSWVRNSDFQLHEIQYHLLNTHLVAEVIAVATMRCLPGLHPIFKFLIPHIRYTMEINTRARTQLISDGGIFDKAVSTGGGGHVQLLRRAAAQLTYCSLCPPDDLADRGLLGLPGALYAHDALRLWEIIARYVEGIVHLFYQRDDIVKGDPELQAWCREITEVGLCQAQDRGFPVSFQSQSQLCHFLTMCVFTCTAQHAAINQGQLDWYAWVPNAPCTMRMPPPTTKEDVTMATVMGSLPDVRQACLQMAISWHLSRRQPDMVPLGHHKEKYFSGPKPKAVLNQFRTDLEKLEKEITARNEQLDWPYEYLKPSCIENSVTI
In words: Inhibition of 12-lipoxygenase in homogenates of human thrombocytes. It is filed as biochemical. Conditions: arachidonic acid 40 μM, indomethacin 10 μM, 25° C., read-out: IC50-value of the inhibitory action on 12-Lipoxygenase. How it is done: Human thrombocytes were suspended at 3×10^9 cells/ml, fumigated with nitrogen, and sonicated with ultrasonic energy while cooling in ice water. After centrifugation at 10.000 × g for 15 minutes, reduced glutathione (3 mM) was added. 1 ml portions of the 10,000 × g supernatant were incubated with a compound according to the invention or with ethanol at 25° C. for 4 minutes and then with 1-^14 C-labelled arachidonic acid (40 μM) for 7.5 minutes. In addition, indomethacin (10 μM) was added to each sample. The reaction was stopped by adding acetic acid, and then the metabolites of arachidonic acid were extracted with ethyl acetate and analyzed by thin layer chromatography. The distribution of the […] fractions was measured using a TLC-linear analyzer. The IC50 -values were determined graphically from semilogarithmic plots. The IC50 -value of the inhibitory action on 12-Lipoxygenase was 1 μmolar when the compound prepared according to Example 1 was used.

Experiment [2] has as its target T2, 12-lipoxygenase. In words: Inhibition of 12-lipoxygenase in human blood. It is filed as cell-based. Details: 3 ml aliquots of human whole blood treated with heparin; from tissue; host or cells: human whole blood (heparinized). Particulars: human whole blood; calcium ionophore A 23 187 15 μg/ml; 37° C., 30 minutes; 12-HETE by HPLC. How it is done:
3 ml aliquots of human whole blood treated with heparin were incubated either with a compound according to the invention or with dimethyl sulfoxide at 37° C. for 5 minutes. Then 12-lipoxygenase was activated by addition of calcium ionophore A 23 187 (15 μg/ml blood). After incubation at 37° C. for 30 minutes and centrifugation, cell-free plasma was obtained. Plasma protein was precipitated by addition of 2 ml of ethanol per ml of plasma and then separated by centrifugation. After adjusting the ethanol content in the supernatant with water to 10% by volume, the 12-lipoxygenase product 12-HETE was enriched by solid phase extraction using an octadecyl silica column. The methanolic eluate was evaporated to dryness, diluted in 40% by volume of methanol, and the 12-HETE-content was determined by HPLC. The IC50 -values of the compounds of the invention prepared according to Examples 1, 8 and 16 were 2, 4 and 3 μmolar, respectively.

With `CC(=O)N(O)Cc1ccc(C(O)C#Cc2ccccc2)cc1` (racemic) [Example 1, N-Hydroxy-N-[4-[1-hydroxy-3-phenyl-prop-2-yn-1-yl]benzyl]acetamide], the 50% inhibitory concentration (IC50) on 5-lipoxygenase was 5000 nM; on 12-lipoxygenase [1], 1000 nM; at 12-lipoxygenase [2], 2000 nM.
